Reference: PMC6272341, “Synthesis and Biological Evaluation of N-Alkoxyphenyl-3-hydroxynaphthalene-2-carboxanilides” (Molecules, 2015)
≈ marks a conversion by molar mass, not a printed value. Where “and” joins values, the source holds several entries; their conditions need not be identical. Equal entries are not always repeated. Where two headings read alike, the source gives them in different places.

Experiments:
S. aureus ATCC 29213 = experiment: In vitro antibacterial susceptibility testing, broth dilution micro-method (MIC); settings: Staphylococcus aureus, ATCC29213, 24 h, read-out: MIC SA
[1] = test system: methicillin-resistant S. aureus clinical isolate SA 630; experiment: as above; settings: 24 h; for MIC: Staphylococcus aureus, MRSA, read-out: MIC MRSA SA 630, clinical isolate MRSA SA 630, 37 °C, MH broth
[2] = test system: methicillin-resistant S. aureus clinical isolate MRSA 63718; experiment: as above; settings: for MIC: Staphylococcus aureus, MRSA, read-out: MIC MRSA 63718, clinical isolate MRSA 63718
[3] = test system: methicillin-resistant S. aureus clinical isolate SA 3202; experiment: as above; settings: 24 h; for MIC: Staphylococcus aureus, MRSA, read-out: MIC MRSA 3202, clinical isolate MRSA 3202, 37 °C, MH broth
[4] = test system: human monocytic leukemia THP-1 cells; settings: 24 h
[5] = test system: clinical isolate of M. avium subsp. paratuberculosis CIT03; experiment: In vitro antimycobacterial evaluation, alamarBlue (MIC); assay type: cell-based; settings: Mycobacterium avium, 264 h, read-out: MIC MAP
[6] = test system: M. tuberculosis H37Ra ATCC 25177; experiment: as above; assay type: cell-based; settings: Mycobacterium tuberculosis, 168 h, read-out: MIC MT
Method: The evaluation of the in vitro antimycobacterial activity of the compounds was performed against M. tuberculosis H37Ra ATCC 25177 [25] and clinical isolate of M. avium subsp. paratuberculosis CIT03 [26], see Table 1. The activity of compounds was expressed as the minimum inhibitory concentration (MIC) that is defined for mycobacteria as a 90% or greater (IC90) reduction of growth in comparison with the control. The MIC/IC90 value is routinely and widely used in bacterial assays, being a standard detection limit according to the Clinical and Laboratory Standards Institute.
Mycobacterium tuberculosis H37Ra ATCC 25177 and well characterised clinical isolate M. avium subsp. paratuberculosis CIT03 were grown in Middlebrook broth (MB), supplemented with Oleic-Albumin-Dextrose-Catalase supplement (Becton Dickinson, Oxford, UK) and mycobactin J (2 μg/mL). Identification of these isolates was performed using biochemical and molecular protocols. At log phase growth, a culture sample (10 mL) was centrifuged at 15,000 rpm/20 min using a bench top centrifuge (Model CR 4-12, Jouan Inc., Winchester, VA, USA). Following removal of the supernatant, the pellet was washed in fresh Middlebrook 7H9GC broth and re-suspended in fresh supplemented MB (10 mL). The turbidity was adjusted to match McFarland standard No. 1 (3 × 10^8 cfu) with MB broth. A further 1:20 dilution of the culture was then performed in MB broth. The antimicrobial susceptibility of all three mycobacterial species was investigated in a 96-well plate format. In these experiments, sterile deionised water (300 µL) was added to all outer-perimeter wells of the plates to minimize evaporation of the medium in the test wells during incubation. Sample wells were composed of 100 µL of test compound dilution and 100 µL of the bacterial stock being tested against. Dilutions of each compound were prepared in duplicate. For all synthesized compounds, final concentrations ranged from 1000 μg/mL to 8 μg/mL. All compounds were prepared in DMSO and subsequent dilutions were made in supplemented MB. The plates were sealed with parafilm and incubated at 37 °C, for 7 days in the case of M. tuberculosis and 11 days in the case of M. avium subsp. paratuberculosis. Following incubation, a 10% addition of alamarBlue (AbD Serotec, Kidlington, UK) was mixed into each well and readings at 570 nm and 600 nm were taken, initially for background subtraction and subsequently after 24 h re-incubation. The background subtraction is necessary for strongly coloured compounds, where the colour may interfere with the interpretation of any colour change. For non-interfering compounds, a blue colour in the well was interpreted as an absence of growth and a pink colour was scored as growth. […] The MIC value is routinely and widely used in bacterial assays and is a standard detection limit according to the Clinical and Laboratory Standards Institute (CLSI,). Rifampicin (Sigma-Aldrich) was used as the standard as it is clinically used antimycobacterial drugs.

[7] = test system: photosynthetic electron transport in spinach chloroplasts; experiment: Inhibition of photosynthetic electron transport (PET), DCPIP photoreduction (Hill reaction); assay type: biochemical, spinach (Spinacia oleracea L.)
Method: The PET inhibiting activity of the compounds was expressed by IC50 values. […] The aqueous solubility of the para-substituted compounds was limited; therefore IC50 values could not be determined due to precipitation of compounds during experiment. […]
Chloroplasts were prepared from spinach (Spinacia oleracea L.) according to Masarovicova and Kralova. The inhibition of photosynthetic electron transport (PET) in spinach chloroplasts was determined spectrophotometrically (Genesys 6, Thermo Scientific Corporation), using an artificial electron acceptor 2,6-dichlorophenol-indophenol (DCPIP) according to Kralova et al., and the rate of photosynthetic electron transport was monitored as a photoreduction of DCPIP. The measurements were carried out in phosphate buffer (20.0 mM, pH 7.2) containing sucrose (0.4 M), MgCl2 (5.0 mM) and NaCl (15.0 mM). The chlorophyll content was 30 mg/L in these experiments and the samples were irradiated (~100 W/m^2 with 10 cm distance) with a halogen lamp (250 W) using a 4 cm water filter to prevent warming of the samples (suspension temperature 22 °C). The studied compounds were dissolved in DMSO due to their limited aqueous solubility. The applied DMSO concentration (up to 4%) had negligible effect on the photochemical activity in isolated spinach chloroplasts (observed differences in DCPIP photoreduction due DMSO addition were within experimental error). The inhibitory efficiency of the studied compounds was expressed by IC50 values, i.e., by molar concentration of the compounds causing 50% decrease in DCPIP photoreduction relative to the untreated control. […] All reagents used in this study were of analytical grade and were purchased from Sigma.

[8] = M. tuberculosis H37Ra, 7 days, 37 °C, alamarBlue, MIC/IC90
[9] = M. avium subsp. paratuberculosis CIT03, 11 days, 37 °C, alamarBlue, MIC/IC90

| SMILES | MIC (S. aureus ATCC 29213) | MIC [1] | MIC ([2]; 24 h, 24 h, 37 °C, MH broth) | MIC [3] | LD50 [4] | MIC [5] | MIC [6, 8] | IC50 [7] | MIC MRSA SA 630 ([1]; clinical isolate MRSA SA 630, 37 °C, MH broth) | activity fold higher than that of ampicillin ([2]; antibacterial activity against MRSA strains versus ampicillin) | MIC MRSA 63718 ([2]; clinical isolate MRSA 63718, 24 h, 37 °C, MH broth) | MIC MRSA 3202 ([3]; clinical isolate MRSA 3202, 37 °C, MH broth) | MIC [5, 9] | MIC [6] |
| --- | --- | --- | --- | --- | --- | --- | --- | --- | --- | --- | --- | --- | --- | --- |
| CCCCOc1ccc(NC(=O)c2cc3ccccc3cc2O)cc1 [Compound 6c, N-(4-Butoxyphenyl)-3-hydroxynaphthalene-2-carboxamide] | 763 µM (≈ 256 µg/mL) | 763 µM (≈ 256 µg/mL) | 763 µM (≈ 256 µg/mL) | 763 µM (≈ 256 µg/mL) | >30 µM | 745 µM (≈ 250 µg/mL) | 745 µM (≈ 250 µg/mL) |  |  |  |  |  |  |  |
| CCCCOc1cccc(NC(=O)c2cc3ccccc3cc2O)c1 [Compound 6b, N-(3-Butoxyphenyl)-3-hydroxynaphthalene-2-carboxamide] | 763 µM (≈ 256 µg/mL) | 763 µM (≈ 256 µg/mL) | 763 µM (≈ 256 µg/mL) | 763 µM (≈ 256 µg/mL) | 16.5 ± 0.8 µM | 745 µM (≈ 250 µg/mL) | 745 µM (≈ 250 µg/mL) | 7.8 µM |  |  |  |  |  |  |
| CCCOc1ccccc1NC(=O)c1cc2ccccc2cc1O [Compound 5a, 3-Hydroxy-N-(2-propoxyphenyl)naphthalene-2-carboxamide] | 12.4 µM (≈ 3.99 µg/mL) | 12 µM (≈ 3.86 µg/mL) | 12 µM (≈ 3.86 µg/mL) | 12 µM (≈ 3.86 µg/mL) |  | 778 µM (≈ 250 µg/mL) | 778 µM (≈ 250 µg/mL) | 128 µM | 12.4 µM (≈ 3.99 µg/mL) | ~4 fold | 12.4 µM (≈ 3.99 µg/mL) | 12.4 µM (≈ 3.99 µg/mL) |  |  |
| O=C(Nc1ccccc1)c1cc2ccccc2cc1O [Compound 2, 3-Hydroxy-N-phenylnaphthalene-2-carboxamide] | 972 µM (≈ 256 µg/mL) | 972 µM (≈ 256 µg/mL) | 972 µM (≈ 256 µg/mL) | 972 µM (≈ 256 µg/mL) | >30 µM |  |  |  |  |  |  |  | 950 µM (≈ 250 µg/mL) | 950 µM (≈ 250 µg/mL) |
| CCCCOc1ccccc1NC(=O)c1cc2ccccc2cc1O [Compound 6a, N-(2-Butoxyphenyl)-3-hydroxynaphthalene-2-carboxamide] | 763 µM (≈ 256 µg/mL) | 763 µM (≈ 256 µg/mL) | 763 µM (≈ 256 µg/mL) | 763 µM (≈ 256 µg/mL) | >30 µM |  | 373 µM (≈ 125 µg/mL) | 182 µM |  |  |  |  | 745 µM (≈ 250 µg/mL) |  |
| CO[C@H]1/C=C/O[C@@]2(C)Oc3c(C)c(O)c4c(O)c(c(/C=N/N5CCN(C)CC5)c(O)c4c3C2=O)NC(=O)/C(C)=C\C=C\[C@H](C)[C@H](O)[C@@H](C)[C@@H](O)[C@@H](C)[C@H](OC(C)=O)[C@@H]1C [RIF, rifampicin, reference compound] |  |  |  |  |  |  | 10 µM (≈ 8.23 µg/mL) |  |  |  |  |  | 109 µM (≈ 89.7 µg/mL) |  |
| CC(C)Oc1ccc(NC(=O)c2cc3ccccc3cc2O)cc1 [Compound 7c, 3-Hydroxy-N-[4-(prop-2-yloxy)phenyl]naphthalene-2-carboxamide] | 796 µM (≈ 256 µg/mL) | 796 µM (≈ 256 µg/mL) | 796 µM (≈ 256 µg/mL) | 796 µM (≈ 256 µg/mL) | >30 µM |  | 389 µM (≈ 125 µg/mL) |  |  |  |  |  | 778 µM (≈ 250 µg/mL) |  |
| CCOc1ccc(NC(=O)c2cc3ccccc3cc2O)cc1 [Compound 4c, N-(4-Ethoxyphenyl)-3-hydroxynaphthalene-2-carboxamide] | 832 µM (≈ 256 µg/mL) | 832 µM (≈ 256 µg/mL) | 832 µM (≈ 256 µg/mL) | 832 µM (≈ 256 µg/mL) | >30 µM | 813 µM (≈ 250 µg/mL) | 813 µM (≈ 250 µg/mL) |  |  |  |  |  |  |  |
| COc1ccccc1NC(=O)c1cc2ccccc2cc1O [Compound 3a, 3-hydroxy-N-(2-methoxyphenyl)naphthalene-2-carboxamide] | 55 µM (≈ 16.1 µg/mL) | 55 µM (≈ 16.1 µg/mL) | 55 µM (≈ 16.1 µg/mL) | 55 µM (≈ 16.1 µg/mL) |  |  | 51 µM (≈ 15 µg/mL) | 59.5 µM |  |  |  |  | 205 µM (≈ 60.1 µg/mL) |  |
| CCCOc1cccc(NC(=O)c2cc3ccccc3cc2O)c1 [Compound 5b, 3-Hydroxy-N-(3-propoxyphenyl)naphthalene-2-carboxamide] | 796 µM (≈ 256 µg/mL) | 796 µM (≈ 256 µg/mL) | 796 µM (≈ 256 µg/mL) | 796 µM (≈ 256 µg/mL) |  | 778 µM (≈ 250 µg/mL) | 778 µM (≈ 250 µg/mL) | 4.8 µM |  |  |  |  |  |  |
| CN(C)C(=O)Nc1ccc(Cl)c(Cl)c1 [DCMU, 3-(3,4-dichlorophenyl)-1,1-dimethylurea, reference compound] |  |  |  |  |  |  |  | ~1.9 µM and 1.9 µM |  |  |  |  |  |  |
| COc1cccc(NC(=O)c2cc3ccccc3cc2O)c1 [Compound 3b, 3-hydroxy-N-(3-methoxyphenyl)naphthalene-2-carboxamide] | 873 µM (≈ 256 µg/mL) | 873 µM (≈ 256 µg/mL) | 873 µM (≈ 256 µg/mL) | 873 µM (≈ 256 µg/mL) | >30 µM |  | 51 µM (≈ 15 µg/mL) | 53.4 µM |  |  |  |  | 426 µM (≈ 125 µg/mL) |  |
| CCCOc1ccc(NC(=O)c2cc3ccccc3cc2O)cc1 [Compound 5c, 3-Hydroxy-N-(4-propoxyphenyl)naphthalene-2-carboxamide] | 796 µM (≈ 256 µg/mL) | 796 µM (≈ 256 µg/mL) | 796 µM (≈ 256 µg/mL) | 796 µM (≈ 256 µg/mL) | >30 µM | 778 µM (≈ 250 µg/mL) | 778 µM (≈ 250 µg/mL) |  |  |  |  |  |  |  |
| CCC(C)Oc1ccc(NC(=O)c2cc3ccccc3cc2O)cc1 (centres unmarked) [Compound 8c, N-[4-(But-2-yloxy)phenyl]-3-hydroxynaphthalene-2-carboxamide] | 763 µM (≈ 256 µg/mL) | 763 µM (≈ 256 µg/mL) | 763 µM (≈ 256 µg/mL) | 763 µM (≈ 256 µg/mL) | >30 µM |  | 89 µM (≈ 29.9 µg/mL) |  |  |  |  |  | 745 µM (≈ 250 µg/mL) |  |
| CC(C)Oc1ccccc1NC(=O)c1cc2ccccc2cc1O [Compound 7a, 3-Hydroxy-N-[2-(prop-2-yloxy)phenyl]naphthalene-2-carboxamide] | 796 µM (≈ 256 µg/mL) | 796 µM (≈ 256 µg/mL) | 796 µM (≈ 256 µg/mL) | 796 µM (≈ 256 µg/mL) | >30 µM |  | 389 µM (≈ 125 µg/mL) | 138 µM |  |  |  |  | 778 µM (≈ 250 µg/mL) |  |
| CC1(C)S[C@@H]2[C@H](NC(=O)[C@H](N)c3ccccc3)C(=O)N2[C@H]1C(=O)O [APC, ampicillin, reference compound] | 5.7 µM (≈ 1.99 µg/mL) | > 46 µM | > 46 µM | > 46 µM |  |  |  |  |  |  |  |  |  |  |
| COc1ccc(NC(=O)c2cc3ccccc3cc2O)cc1 [Compound 3c, 3-hydroxy-N-(4-methoxyphenyl)naphthalene-2-carboxamide] | 873 µM (≈ 256 µg/mL) | 873 µM (≈ 256 µg/mL) | 873 µM (≈ 256 µg/mL) | 873 µM (≈ 256 µg/mL) | >30 µM | 852 µM (≈ 250 µg/mL) | 852 µM (≈ 250 µg/mL) |  |  |  |  |  |  |  |
